Measured values: patent US10670605B2, “Cysteine reactive probes and uses thereof” (The Scripps Research Institute, priority 2015, dated 2020)

Legend:
O114933_C98 = O114933_C98 (Homo sapiens, UniProt O14933); assay: Competitive isoTOP-ABPP, cell lysates; assay type: binding
[1] = target: cysteines in MDA-MB-231 and Ramos cells (Homo sapiens, UniProt Q9Y676); assay: Competitive isoTOP-ABPP in situ (fragment-treated cells); assay type: cell-based
[2] = target: cysteines in MDA-MB-231 and Ramos cells (Homo sapiens, UniProt Q14980); assay: as above; assay type: cell-based; details: 200 μM, insitu, 231
UBE2O C375 (Q9C0C9) = target: T1, UBE2O C375 (Q9C0C9) (Homo sapiens, UniProt Q9C0C9); assay: Competitive isoTOP-ABPP, cell lysates; assay type: binding
T1 sequence (Q9C0C9 1-1292): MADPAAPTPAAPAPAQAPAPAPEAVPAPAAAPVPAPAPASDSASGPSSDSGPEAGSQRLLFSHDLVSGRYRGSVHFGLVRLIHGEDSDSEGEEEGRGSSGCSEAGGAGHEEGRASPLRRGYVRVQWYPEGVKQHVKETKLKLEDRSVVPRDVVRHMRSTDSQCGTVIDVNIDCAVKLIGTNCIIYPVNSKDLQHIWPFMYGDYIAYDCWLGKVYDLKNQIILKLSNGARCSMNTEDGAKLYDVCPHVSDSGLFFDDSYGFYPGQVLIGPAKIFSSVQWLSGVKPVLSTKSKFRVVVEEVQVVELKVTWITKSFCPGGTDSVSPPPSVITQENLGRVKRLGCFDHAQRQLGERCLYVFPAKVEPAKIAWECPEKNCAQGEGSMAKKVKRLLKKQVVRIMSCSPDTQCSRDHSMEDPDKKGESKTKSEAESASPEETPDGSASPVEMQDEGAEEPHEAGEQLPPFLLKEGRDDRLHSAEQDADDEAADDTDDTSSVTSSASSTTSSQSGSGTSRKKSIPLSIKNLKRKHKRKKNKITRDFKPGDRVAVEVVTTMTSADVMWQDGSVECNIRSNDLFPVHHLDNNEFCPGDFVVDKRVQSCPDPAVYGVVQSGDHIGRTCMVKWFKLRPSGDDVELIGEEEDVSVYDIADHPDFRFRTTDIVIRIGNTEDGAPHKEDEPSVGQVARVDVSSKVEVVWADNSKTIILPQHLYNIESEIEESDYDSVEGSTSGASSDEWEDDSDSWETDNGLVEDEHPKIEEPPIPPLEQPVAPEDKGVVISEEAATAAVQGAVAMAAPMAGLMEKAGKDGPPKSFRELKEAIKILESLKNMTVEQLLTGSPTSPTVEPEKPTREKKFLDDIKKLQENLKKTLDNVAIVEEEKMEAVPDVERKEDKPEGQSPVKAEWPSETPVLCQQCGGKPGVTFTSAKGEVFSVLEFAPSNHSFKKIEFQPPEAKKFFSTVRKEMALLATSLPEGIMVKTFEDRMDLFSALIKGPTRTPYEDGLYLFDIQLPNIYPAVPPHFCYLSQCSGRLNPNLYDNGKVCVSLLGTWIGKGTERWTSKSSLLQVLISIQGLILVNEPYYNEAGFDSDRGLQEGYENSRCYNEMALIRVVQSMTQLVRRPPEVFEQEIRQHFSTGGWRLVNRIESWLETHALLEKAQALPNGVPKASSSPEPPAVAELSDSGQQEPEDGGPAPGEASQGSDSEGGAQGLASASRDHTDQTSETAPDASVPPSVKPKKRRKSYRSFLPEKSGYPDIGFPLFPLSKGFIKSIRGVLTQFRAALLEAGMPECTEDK

Chain of cysteines in MDA-MB-231 and Ramos cells (Homo sapiens, UniProt Q14980) (Q14980 whole entry): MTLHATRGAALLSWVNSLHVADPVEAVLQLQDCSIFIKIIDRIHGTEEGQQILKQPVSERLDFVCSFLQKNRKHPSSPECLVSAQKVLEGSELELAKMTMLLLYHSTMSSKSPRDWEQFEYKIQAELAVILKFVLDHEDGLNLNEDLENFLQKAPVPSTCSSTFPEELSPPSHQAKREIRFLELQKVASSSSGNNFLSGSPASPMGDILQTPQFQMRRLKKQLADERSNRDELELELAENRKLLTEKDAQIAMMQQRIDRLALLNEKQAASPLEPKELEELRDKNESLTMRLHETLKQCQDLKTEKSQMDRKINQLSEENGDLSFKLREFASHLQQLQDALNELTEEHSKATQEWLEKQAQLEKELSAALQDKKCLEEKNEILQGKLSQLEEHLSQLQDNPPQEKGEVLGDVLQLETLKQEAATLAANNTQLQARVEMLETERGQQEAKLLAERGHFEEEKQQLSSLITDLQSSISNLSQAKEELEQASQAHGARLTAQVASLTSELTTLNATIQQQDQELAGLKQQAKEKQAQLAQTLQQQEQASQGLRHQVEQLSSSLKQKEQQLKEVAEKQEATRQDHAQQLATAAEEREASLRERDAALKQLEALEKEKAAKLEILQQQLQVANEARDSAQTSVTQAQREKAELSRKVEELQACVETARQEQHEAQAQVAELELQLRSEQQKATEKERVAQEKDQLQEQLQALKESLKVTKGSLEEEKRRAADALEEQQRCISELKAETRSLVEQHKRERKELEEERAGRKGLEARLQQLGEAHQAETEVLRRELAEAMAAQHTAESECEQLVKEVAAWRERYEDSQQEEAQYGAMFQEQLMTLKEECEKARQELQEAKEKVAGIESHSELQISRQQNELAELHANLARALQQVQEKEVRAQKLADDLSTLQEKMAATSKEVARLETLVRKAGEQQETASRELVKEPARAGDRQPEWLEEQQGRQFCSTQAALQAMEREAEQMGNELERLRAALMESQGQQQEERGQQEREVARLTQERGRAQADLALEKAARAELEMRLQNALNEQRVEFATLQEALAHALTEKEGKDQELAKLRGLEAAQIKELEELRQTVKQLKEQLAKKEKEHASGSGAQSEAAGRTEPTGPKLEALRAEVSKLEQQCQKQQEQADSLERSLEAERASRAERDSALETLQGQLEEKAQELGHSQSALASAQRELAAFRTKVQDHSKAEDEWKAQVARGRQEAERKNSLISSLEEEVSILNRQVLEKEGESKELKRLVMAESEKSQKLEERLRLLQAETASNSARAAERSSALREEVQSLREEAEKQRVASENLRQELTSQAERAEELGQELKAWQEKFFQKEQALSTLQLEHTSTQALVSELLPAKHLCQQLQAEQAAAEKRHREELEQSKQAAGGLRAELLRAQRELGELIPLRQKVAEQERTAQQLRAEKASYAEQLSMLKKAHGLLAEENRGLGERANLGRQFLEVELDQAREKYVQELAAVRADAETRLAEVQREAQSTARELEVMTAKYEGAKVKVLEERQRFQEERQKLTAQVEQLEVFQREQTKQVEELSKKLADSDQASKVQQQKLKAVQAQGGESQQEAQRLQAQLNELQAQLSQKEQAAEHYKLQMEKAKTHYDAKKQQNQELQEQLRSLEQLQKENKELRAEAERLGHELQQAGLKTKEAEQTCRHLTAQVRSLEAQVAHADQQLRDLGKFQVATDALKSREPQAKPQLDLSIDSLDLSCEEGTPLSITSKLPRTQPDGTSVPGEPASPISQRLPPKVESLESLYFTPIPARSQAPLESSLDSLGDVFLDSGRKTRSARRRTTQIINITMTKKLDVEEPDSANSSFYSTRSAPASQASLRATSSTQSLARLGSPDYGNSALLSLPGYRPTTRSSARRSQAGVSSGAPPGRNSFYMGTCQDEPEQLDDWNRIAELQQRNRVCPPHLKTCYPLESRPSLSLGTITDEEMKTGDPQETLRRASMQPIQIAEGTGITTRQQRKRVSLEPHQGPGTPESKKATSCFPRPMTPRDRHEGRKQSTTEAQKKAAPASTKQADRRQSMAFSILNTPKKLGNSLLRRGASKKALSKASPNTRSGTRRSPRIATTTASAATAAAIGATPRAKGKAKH
Chain of O114933_C98 (O14933 whole entry, the tested form may be a part): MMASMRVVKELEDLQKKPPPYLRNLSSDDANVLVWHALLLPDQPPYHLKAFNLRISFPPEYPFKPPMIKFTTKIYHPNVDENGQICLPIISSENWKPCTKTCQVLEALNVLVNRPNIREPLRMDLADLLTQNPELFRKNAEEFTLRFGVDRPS

With `COc1ccccc1OCCNC(=O)CCl` [compound 28] the “isoTOP-ABPP ratio (reactivity profile), O114933_C98” value (“isoTOP-ABPP ratio … O114933_C98” for short) (O114933_C98; 500 μm in-vitro ramos) was 1.2.

In the case of `O=C(CCl)N1CCC(C(O)(c2ccccc2)c2ccccc2)CC1` [compound 20], the “isoTOP-ABPP ratio … O114933_C98” value (O114933_C98; 500 μm in-vitro ramos) is reported as 3.9.

For `O=C(CCl)NC(=O)NC12CC3CC(CC(C3)C1)C2` [compound 12], the “isoTOP-ABPP ratio Q9Y676_C128” value ([1]; 200 μM, insitu, 231) was 1.4 and the “isoTOP-ABPP ratio, cysteine Q14980_C961” value [2] was 20.0.

With `O=C(CCl)NCCc1c[nH]c2ccccc12` [compound 13] the “isoTOP-ABPP ratio, cysteine Q14980_C961” value [2] was 2.2.

In the case of `O=C(CCl)N1CCOCC1` [compound 22], the “isoTOP-ABPP ratio … O114933_C98” value (O114933_C98; 500 μm in-vitro ramos) is reported as 2.0.

In the case of `COc1ccc(C2CC(c3cccs3)=NN2C(=O)CCl)cc1` (stereo not shown) [compound 4], the “isoTOP-ABPP reactivity Q9Y676_C128 MRPS18B” value ([1]; 100 μM in situ 231) is reported as 2.3.

For `O=C(CCl)NC12CC3CC(CC(C3)C1)C2` [compound 21], the “isoTOP-ABPP ratio Q9Y676_C128” value ([1]; 200 μM, insitu, 231) was 1.5, the “isoTOP-ABPP ratio, cysteine Q14980_C961” value [2] was 3.7 and the “isoTOP-ABPP ratio (reactivity profile), Q9C0C9_C375” value (UBE2O C375 (Q9C0C9); 500 μm in-vitro ramos) was 2.4.

With `O=C(/C=C/c1ccccc1)Nc1cc(C(F)(F)F)cc(C(F)(F)F)c1` [compound 26] the “isoTOP-ABPP ratio … O114933_C98” value (O114933_C98; 500 μm in-vitro ramos) was 1.0.

With `O=C(CCl)Nc1cccc2ncccc12` [compound 51] the “isoTOP-ABPP ratio Q9Y676_C128” value ([1]; 200 μM, insitu, 231) was 1.0 and the “isoTOP-ABPP reactivity profile ratio, Q9C0C9_C375” value (UBE2O C375 (Q9C0C9); 500 μm, in-vitro_ramos) was 0.8.

In the case of `Cn1cc(S(=O)(=O)N2CCOCC2)cc1C(=O)NC(=O)CCl` [compound 11], the “isoTOP-ABPP ratio Q9Y676_C128” value ([1]; 100 μM in situ 231) is reported as 0.8.

For `C=CC(=O)Nc1cc(F)c(N2CCN(C(=O)OC(C)(C)C)CC2)c(F)c1` [compound 38], the “isoTOP-ABPP ratio Q9Y676_C128” value ([1]; 200 μM, insitu, 231) was 1.0 and the “isoTOP-ABPP ratio Q14980_C961” value [2] was 2.6.

`O=C(CCl)Nc1cc(C(F)(F)F)cc(C(F)(F)F)c1` [compound 3] was tested, and the “R value (DMSO/fragment)” value (UBE2O C375 (Q9C0C9); 500 μM, in vitro, MDA-MB-231) was 9.8 and the “R value (DMSO/fragment)” value (UBE2O C375 (Q9C0C9); 500 μM, invitro, ramos) was 4.1.

With `CC1CCc2ccccc2N1C(=O)CCl` (stereo not shown) [compound 45] the “isoTOP-ABPP ratio Q9Y676_C128” value ([1]; 200 μM, insitu, 231) was 2.0.

For `C=CC(=O)N(Cc1cccnc1)c1ccc(Oc2ccccc2)c(C(F)(F)F)c1` [compound 15], the “isoTOP-ABPP ratio … O114933_C98” value (O114933_C98; 500 μm in-vitro ramos) was 1.3.

With `COc1ccc2c(c1)CCCN2C(=O)CCl` [compound 2] the “isoTOP-ABPP reactivity Q9Y676_C128 MRPS18B” value ([1]; 200 μM, insitu, 231) was 10.2.

With `CCN(CC)c1ccc(S(N)(=O)=O)cc1NC(=O)CCl` [compound 30] the “isoTOP-ABPP ratio … O114933_C98” value (O114933_C98; 500 μm in-vitro ramos) was 1.3.

For `COc1cc2c(cc1OC)CN(C(=O)CCl)CC2` [compound 8], the “isoTOP-ABPP reactivity Q9Y676_C128 MRPS18B” value ([1]; 200 μM, insitu, 231) was 1.0.

In the case of `N#C/C(=C\c1cc(C(F)(F)F)cc(C(F)(F)F)c1)C(N)=O` [compound 23], the “isoTOP-ABPP ratio … O114933_C98” value (O114933_C98; 500 μm in-vitro ramos) is reported as 1.2, the “isoTOP-ABPP ratio … O114933_C98” value (O114933_C98; 500 μm in-vitro ramos_231) is reported as 0.7 and the “isoTOP-ABPP ratio (reactivity profile), Q9C0C9_C375” value (UBE2O C375 (Q9C0C9); 500 μm in-vitro ramos) is reported as 1.4.

In the case of `CC(C)CCOCCNC(=O)CCl` [compound 27], the “isoTOP-ABPP ratio … O114933_C98” value (O114933_C98; 500 μm in-vitro ramos) is reported as 1.0, the “isoTOP-ABPP ratio … O114933_C98” value (O114933_C98; 500 μm in-vitro ramos_231) is reported as 1.2 and the “isoTOP-ABPP ratio Q9Y676_C128” value ([1]; 200 μM, insitu, 231) is reported as 1.0. For the same molecule, the “isoTOP-ABPP ratio Q14980_C961” value [2] was 2.4 and the “isoTOP-ABPP ratio (reactivity profile), Q9C0C9_C375” value (UBE2O C375 (Q9C0C9); 500 μm in-vitro ramos_231) was 0.7.

`O=C(CCl)N1CCN(S(=O)(=O)c2ccccc2F)CC1` [compound 10] was tested, and the “isoTOP-ABPP ratio Q9Y676_C128” value ([1]; 200 μM, insitu, 231) was 2.9 and the “isoTOP-ABPP ratio, Q9C0C9_C375” value (UBE2O C375 (Q9C0C9); 500 μM, invitro, ramos) was 0.8.

In the case of `C=CC(=O)N(Cc1cccnc1)c1cc(C(F)(F)F)cc(C(F)(F)F)c1` [compound 31], the “isoTOP-ABPP ratio Q14980_C961” value [2] is reported as 1.1.
